{"source": "patent US9943524B2", "about": "“Use of alkaloid in preparing pharmaceutical compositions for preventing or treating pulmonary fibrosis” (China Pharmaceutical University, priority 2014, dated 2018)", "key": {"[1]": {"system": "pulmonary fibrosis mice induced by bleomycin", "assay": "Activity of 8 alkaloids and pentoxyverine against pulmonary fibrosis in mice (Embodiment 3)", "format": "in vivo, C57BL/6 mice", "settings": "intragastric from first day after model to 21th day; alkaloids and pentoxyverine 30 mg/kg (FIG. 1B, 1C)", "experimental": "(§1) Female C57BL/6 mice (eight-week-old) are established for models after 7 days, the time is set for the mice to adapt to the environment. After fasts for overnight, the mice are anaesthetized by 3% chloral hydrate and fixed. Sterilize and incise neck skin longitudinally as little injury as possible. Split fascia and muscle with tweezers longitudinally and expose the windpipe. Then, about 35 μl (3.5 mg/kg) bleomycin are injected into windpipe with microinjector. Put the mice upright rapidly and rotate the mice for 3˜5 minutes, so that bleomycin is able to enter into the pulmones uniformly. Observe the breathing of mice. Sterilize neck injury with 75% alcohol tampon and stitch the wound, then 1 drop or 2 drops of benzylpenicillin injection is/are dripped into the suture. Put the mice back into dry and clean cages, and feed them normally after waking up. Operations are done on operating table at about […]. Physiological saline using in injection is injected into windpipe of sham operation group.\nExperimental mice are randomly divided into 12 groups: 10 mice in model group, 10 mice in pentoxyverine group, and 5 mice in any other group. Group 1 is sham operation group, group 2 is model group, group 3 is pentoxyverine group, group 4 is positive drug pirfenidone group, groups 5-12 are compounds I-VIII administration group respectively. Models of groups 2-12 are established by using bleomycin with the same method used in embodiment 2. From the first day after successfully establishing model, 30 mg/kg pentoxyverine and 300 mg/kg pirfenidone are given to group 3 and group 4 by means of intragastric administration respectively. 30 mg/kg compounds I-VIII are given to groups 5-12 also by means of intragastric administration respectively. Besides, same doses of solvent are given to sham operation group and model group until the 21th day. After the last intragastric administration, the mice are killed to collect the lung tissue, and the right lobule is used for determining the content of hydroxyproline, while the left lobule is used for preparing pathological sections."}, "[2]": {"system": "pulmonary fibrosis mice induced by bleomycin", "assay": "Determination of mice mortality (Embodiment 4)", "format": "in vivo, C57BL/6 mice", "experimental": "as §1\n(§2) Model animals are divided into prevention groups and treatment groups, then drugs are given to the two groups respectively. According to internationally methods of drug administration, drugs are given continuously to the prevention groups by means of intragastric administration from the second day after successfully establishing model to the 14th day, and drugs are given continuously to treatment groups by means of intragastric administration from the 8th day after successfully establishing model to the 21th day. Groups and dosage regimen are shown in tab.1.\nFrom the 0th day (the day when the model is established) to 14th day, drugs are given continuously to prevention groups. From the 8th day after successfully establishing model to 21th day, drugs are given continuously to treatment groups. Statistical analysis of death of animals in each group is carried on every day and the survival rate of animals in each group is calculated. Results are shown in tab.2."}, "[3]": {"system": "pulmonary fibrosis mice induced by bleomycin", "assay": "Detection of the mice lung index (Embodiment 4)", "format": "in vivo, C57BL/6 mice", "settings": "30 and 60 mg/kg, prevention groups and treatment groups, versus model group (FIG. 2); lower dose better in prevention groups", "experimental": "as §1, §2\nAfter the last intragastric administration, the mice are killed to strip and weigh the lung, and the lung index is the lung weight divided by mouse weight (FIG. 2). […] In general, the 3 compounds have better effect in decreasing the mortality of mice than the positive drug pirfenidone."}, "[4]": {"system": "pulmonary fibrosis mice induced by bleomycin", "assay": "HE stained pathological evaluation and inflammation scores (Embodiment 4)", "format": "in vivo, C57BL/6 mice", "experimental": "as §1, §2\nAfter the last intragastric administration, the mice are anaesthetized and killed to collect the lung tissue. Immerse the left lobule in 10% formalin, and embed it by paraffin after being fixed, then cut it into slices to observe the pathological changes by HE staining. As is shown in FIG. 3, structures of lobules of sham operation group are normal and the alveolar walls are complete without inflammation and fibrosis pathological changes. Obvious inflammation injury and masses of tissue begin to appear in lung of mice in model group, then the normal lung tissue disappears and alveolar is blocked. […] The groups with lower dose (30 mg/kg) of the 3 compounds show better effect than the groups with higher dose. The pulmonary inflammation disappears and alveolar structure is clear in groups with lower dose.\nInflammatory classification semi quantitative statistics analysis is made according to results of HE staining. Grade 0 represents normal tissue or minimal inflammation change. Grade 1 (+) represents mild to moderate inflammation change, and lung tissue without obvious damage. Grade 2 (++) represents moderate to severe inflammation injury, and alveolar septum is thickened to form masses of tissue, or lung tissue with damage caused by partial area inflammation. Grade 3 (+++) represents severe inflammation injury, and structure of restricted regions in lung tissue is severely damaged, thus resulting in obliteration. […] The groups with lower dose show better effect than the groups with higher dose. In general, the 3 compounds have better effect in decreasing the pulmonary inflammation than the positive drug pirfenidone."}, "[5]": {"system": "pulmonary fibrosis mice induced by bleomycin", "assay": "Masson stained pathological evaluation and imaging analysis of collagen (Embodiment 4)", "format": "in vivo, C57BL/6 mice", "experimental": "as §1, §2\nMasson staining is a method aiming at specific staining of fibrillar collagen. After the last intragastric administration, the mice are anaesthetized and killed to collect the lung tissue. Immerse the left lobule in 10% formalin, and embed it by paraffin after being fixed, then is cut it into slices to observe the collagen deposition by Masson staining. Semi quantitative analysis is made by using Image-Pro Plus6.0. Integrated optical density (IOD) of collagen in each visual field is measured after Masson staining. 5 samples are studied in each group and 5 visual fields are picked out from each group. Statistics analysis is made by calculating mean value which is considered as relative amount of collagen in each group."}, "[6]": {"system": "pulmonary fibrosis mice induced by bleomycin", "assay": "Content determination of hydroxyproline in lung tissue (Embodiment 4)", "format": "in vivo, C57BL/6 mice", "settings": "30 mg/kg and 60 mg/kg, prevention groups and treatment groups (FIG. 7); lower dose slightly better", "experimental": "as §1, §2\nHydroxyproline mainly exists in collagen protein, but there is only a very small amounts in elastin proteins and it cannot found in other proteins. Therefore the content of collagen protein can be indicated by measuring the content of hydroxyproline, so as to evaluate the degree of pulmonary fibrosis. Method of test kit (which is purchased from Nanjing Jiancheng Biological Technology Co., Ltd.) according to specification is used in determination of hydroxyproline. Results can be seen in FIG. 7."}, "TGF-β1 [7]": {"system": "TGF-β1", "assay": "ELISA content determination of TGF-β1 in mice lung tissue (Embodiment 4)", "format": "in vivo, C57BL/6 mice", "settings": "30 mg/kg and 60 mg/kg, prevention groups and treatment groups, versus model group (FIG. 8); lower dose more effective", "experimental": "as §1, §2\nTGF-β1 is a universally recognized strong pro-fibrotic cytokine. It can stimulate the cells to synthesize and secrete extracellular matrix as well as exchange the activity of matrix-degrading enzyme component and directly increase the deposition of ECM. The progress of pulmonary fibrosis can be slowed down by decreasing the content of TGF-β1 in lung tissue. Elisa test kit (which is purchased from Shanghai Excell Biological Technology Co., Ltd.) according to specification is used in the determination of TGF-β1 in mice lung tissue. Results can be seen in FIG. 8."}, "[8]": {"system": "cough of guinea pig induced by citric acid", "settings": "cited from earlier work"}, "cough reflex pathway": {"system": "cough reflex pathway", "settings": "in vivo; cited from earlier work"}, "TGF-β1 [9]": {"system": "TGF-β1", "settings": "cited from earlier work"}, "[10]": {"settings": "cited from earlier work"}}}
{"molecule": "CC[C@@H]1[C@H]2CCCCN3[C@H]2[C@@H](C[C@H]3[C@@H]2C[C@H](C)C(=O)O2)[C@H]2[C@@H]1OC(=O)[C@H]2C", "note": "[Compound VII, Neotuberostemonine]", "values": [{"measurement": "pulmonary inflammation, injury and fibrosis in HE and Masson stained pathological sections", "setting": "[1]", "result": "recover to nearly normal structure"}, {"measurement": "Survival rate", "setting": "[2]; prevention groups, 30 mg/kg intragastric to the 14th day", "result": 100, "unit": "%"}, {"measurement": "Mortality (number of dead animals)", "setting": "[2]; prevention groups, 30 mg/kg intragastric to the 14th day, 10 animals", "result": 0}, {"measurement": "Survival rate", "setting": "[2]; prevention groups, 60 mg/kg intragastric to the 14th day", "result": 80, "unit": "%"}, {"measurement": "Mortality (number of dead animals)", "setting": "[2]; prevention groups, 60 mg/kg intragastric to the 14th day, 10 animals", "result": 2}, {"measurement": "protective effect on model mice (mortality), comparison among compounds", "setting": "[2]; prevention groups, lower dose (30 mg/kg) better", "result": "more effective than compound VIII"}, {"measurement": "Survival rate", "setting": "[2]; treatment groups, 30 mg/kg intragastric from the 8th to the 21th day", "result": 89, "unit": "%"}, {"measurement": "Mortality (number of dead animals)", "setting": "[2]; treatment groups, 30 mg/kg intragastric from the 8th to the 21th day, 18 animals", "result": 2}, {"measurement": "Survival rate", "setting": "[2]; treatment groups, 60 mg/kg intragastric from the 8th to the 21th day", "result": 78, "unit": "%"}, {"measurement": "Mortality (number of dead animals)", "setting": "[2]; treatment groups, 60 mg/kg intragastric from the 8th to the 21th day, 18 animals", "result": 4}, {"measurement": "lung index (lung weight divided by mouse weight)", "setting": "[3]", "result": "significantly decrease the lung index"}, {"measurement": "lung tissue inflammation scores (HE stained, grade 0-3)", "setting": "[4]; 30, 60 mg/kg, prevention and treatment groups (FIG. 4), lower dose better", "result": "significantly decrease the pulmonary inflammation"}, {"measurement": "pulmonary inflammation and injury, HE stained pathological changes", "setting": "[4]; prevention groups and treatment groups (FIG. 3), lower dose (30 mg/kg) better than higher dose", "result": "significantly alleviate the pulmonary inflammation"}, {"measurement": "collagen deposition (Masson staining, integrated optical density)", "setting": "[5]; 30, 60 mg/kg, prevention and treatment groups (FIG. 5, 6), lower dose better in prevention, higher dose better in treatment", "result": "significantly decrease collagen deposition"}, {"measurement": "effect in decreasing the collagen deposition, comparison among compounds", "setting": "[5]; in general, Masson staining", "result": "slightly better than that of compound VIII"}, {"measurement": "content of hydroxyproline in lung tissue", "setting": "[6]", "result": "effectively decrease the content of hydroxyproline"}, {"measurement": "content of TGF-β1 in lung tissue (ELISA)", "setting": "TGF-β1 [7]", "result": "effectively decrease the content of TGF-β1"}, {"measurement": "antitussive effect", "setting": "[8]", "result": "very good antitussive effect"}, {"measurement": "antitussive activities, comparison among stemona tuberosa alkaloids", "setting": "cough reflex pathway", "result": "similar"}]}
{"molecule": "Cc1ccc(=O)n(-c2ccccc2)c1", "note": "[Pirfenidone, pirfenidone, reference compound]", "values": [{"measurement": "Survival rate", "setting": "[2]; prevention groups, 300 mg/kg intragastric to the 14th day", "result": 70, "unit": "%"}, {"measurement": "Mortality (number of dead animals)", "setting": "[2]; prevention groups, 300 mg/kg intragastric to the 14th day, 10 animals", "result": 3}, {"measurement": "Survival rate", "setting": "[2]; treatment groups, 300 mg/kg intragastric from the 8th to the 21th day", "result": 67, "unit": "%"}, {"measurement": "Mortality (number of dead animals)", "setting": "[2]; treatment groups, 300 mg/kg intragastric from the 8th to the 21th day, 18 animals", "result": 6}, {"measurement": "inhibition of pro-fibrogenic factors", "setting": "TGF-β1 [9]", "result": "can inhibit the pro-fibrogenic factors such as TGF-β1"}, {"measurement": "clinical side effects", "setting": "[10]", "result": "photosensitization"}]}
